≈ marks a conversion by molar mass, not a printed value. Where “and” joins values, the source holds several entries; their conditions need not be identical. Equal values may be shown once.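 Where inhibition never reached the appropriate level, the endpoint shown equals the highest concentration tested. Otherwise, values were interpolated linearly from a five-concentration, 48-hour dose response in 96-well plates. At the GI50, growth is halved. TGI denotes the concentration required for complete inhibition of growth.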 Calls of active or inactive are those of the source. Rule as the data show it: active = GI50 below about 0.43 µM; inactive = the rest. Where a SMILES comes first, the peptide text is derived from it. [ ]: non-standard residue; d: D form. The star is where a group is joined. ξ: configuration not given here. NMeN = CN[C@@H](CC(N)=O)C(=O)O; NMeV = CN[C@H](C(=O)O)C(C)C; ξNMeV = CNC(C(=O)O)C(C)C; Boc = CC(C)(C)OC(=O)*; ξNMeA = CNC(C)C(=O)O
Legend:
Assay in all cases: NCI tumour cell line growth inhibition, 48 h
HOP-18 NSCLC = system: HOP-18 NSCLC
LXFL 529 NSCLC = system: LXFL 529 NSCLC
BT-549 breast = system: BT-549 breast
NCI/ADR-RES ovarian = system: NCI/ADR-RES ovarian
MDA-MB-231 breast = system: MDA-MB-231 breast
HS 578T breast = system: HS 578T breast
DU-145 prostate = system: DU-145 prostate
MCF7 breast = system: MCF7 breast
MDA-MB-435 = system: MDA-MB-435

Compound | TGI (HOP-18 NSCLC) | TGI (LXFL 529 NSCLC) | also measured
CCC[CH2][Sn]([CH2]CCC)([O]C(=O)C(N)CSC)[O]C(=O)C(N)CSC (configuration not stated) | 21.8 µM | 3.49 µM | GI50 (HOP-18 NSCLC): 10.2 µM; GI50 (LXFL 529 NSCLC): 0.969 µM
C=C1C(=O)[C@@]23CC1C(O)[C@@H](OC(C)=O)[C@@H]2C1(C)C(OC(C)=O)C[C@@H](OC(C)=O)C(C)(C)[C@@H]1C[C@H]3OC(C)=O (some centres not stated) | – | – | GI50 (BT-549 breast): 1.87 µg/mL (≈ 3.5 µM); TGI (BT-549 breast): 3.04 µM and 3.31 µg/mL; GI50 (NCI/ADR-RES ovarian): 16.9 µg/mL (≈ 31.6 µM); TGI (NCI/ADR-RES ovarian): > 10 µM and 37.2 µg/mL; outcome (LXFL 529 NSCLC): inactive; GI50 (MDA-MB-231 breast): 2.38 µg/mL (≈ 4.44 µM); TGI (MDA-MB-231 breast): 7.49 µg/mL; GI50 (HS 578T breast): 2 µg/mL (≈ 3.75 µM); TGI (HS 578T breast): > 10 µM and 5.83 µg/mL; GI50 (DU-145 prostate): 16.9 µg/mL (≈ 31.6 µM); TGI (DU-145 prostate): > 10 µM and 30.6 µg/mL; GI50 (MCF7 breast): 6.33 µg/mL (≈ 11.8 µM); TGI (MCF7 breast): 6.7 µM and 19.1 µg/mL; GI50 (MDA-MB-435): 2.88 µg/mL (≈ 5.39 µM); TGI (MDA-MB-435): 9.51 µg/mL
COC(=O)C(C)N(C)C(=O)[C@H](CC(N)=O)N(C)C(=O)[C@@H]1CCCN1C(=O)[C@H](C(C)C)N(C)C(=O)C(C(C)C)N(C)C(=O)[C@@H](NC(=O)OC(C)(C)C)C(C)C (some centres not stated) (Boc-V[ξNMeV][NMeV]P[NMeN][ξNMeA]-OMe) | > 100 µM | > 100 µM | TGI (BT-549 breast): > 50 µM; TGI (NCI/ADR-RES ovarian): > 50 µM; TGI (MDA-MB-231 breast): > 50 µM; TGI (DU-145 prostate): > 50 µM; TGI (MCF7 breast): > 50 µM; TGI (MDA-MB-435): > 50 µM
CCCCc1ccc(-n2c3nc(=O)n(C)c(=O)c-3nc3ccccc32)cc1 | 22.7 µM | 30.4 µM | –
C1CCN(C2OC3C(COC3N3CCCCC3)OC2OC2CCO[C@@H]2N2CCCCC2)CC1 (some centres not stated) | – | 68.5 µM | –
Cc1cc(C)nc(NS(=O)(=O)c2ccc(Nc3c4ccc(Cl)cc4nc4c(C(=O)Nc5ccc(S(=O)(=O)N=C(N)N)cc5)cccc34)cc2)n1 | – | > 100 µM | –
Nc1ncn(C2C=C(CO)C(O)C2O)c(=O)n1 (configuration not stated) | > 100 µM | > 100 µM | –
CCN(CC)CCNC(=O)c1nn(C)c(=S)[nH]c1=S | > 100 µM | > 100 µM | –
COc1ccc(C(=O)OC2C=COC(C)C2OC(=O)c2ccc(OC)cc2)cc1 (configuration not stated) | > 61.1 µM | 28.1 µM | –
CC[O-].CC[O-].O=C1C(c2ccccc2)=C([O-])c2ccccc21.O=C1C(c2ccccc2)=C([O-])c2ccccc21.[Ti+4] | > 100 µM | > 100 µM | GI50 (HOP-18 NSCLC): > 100 µM; GI50 (LXFL 529 NSCLC): > 100 µM
O=c1[nH]c2c3ccccc3ccc2c2cc3c(cc12)OCO3 | > 100 µM | > 100 µM | –
O=C(Nc1ccc(F)cc1)C(=O)C(C1OC(=O)c2ccccc21)[N+](=O)[O-] (configuration not stated) | – | > 100 µM | –
CCCC(C)C[C@@H](C)CC(C)/C=C(\C)c1oc(=O)c(C)c(O)c1C (some centres not stated) (tested in a mixture with another compound) | – | 25.9 µM | –
COC(=O)C12CC3CC(C1)CC(C(=O)OC)(C3)C2 | > 100 µM | > 100 µM | –
CCc1nc(N)nc(C(=O)NCCNC(=O)c2nc(N)nc(CC)c2C)c1C | > 100 µM | > 100 µM | –
CSc1nc(NC(=O)O)c(N(C(C)=O)C(=O)O)c(=O)n1C | – | > 100 µM | –
Cc1ccc(/C=C/C(=O)c2sc(-c3cccnc3)nc2C)cc1 | > 100 µM | – | –
COc1ccc2cc3[n+](cc2c1OC)CCc1cc(O)c(O)cc1-3 | – | > 100 µM | –
COc1cc(C(=O)C/C(CCC(=O)Nc2ccc(Cl)cc2C)=N/NC(=O)C(N)=O)ccc1O | > 100 µM | > 100 µM | –
COC(=O)C12C3C4C5C3(C#N)C1C5(C(=O)OC)C42C(=O)N(C(C)C)C(C)C (configuration not stated) | > 100 µM | > 100 µM | –
Cc1nc2cc(N)c(F)cc2[nH]1 | – | > 100 µM | –
CCn1c(O)c(C=N)c(=O)n(CC)c1=O | > 100 µM | > 100 µM | –
CCCCCCCCCCC(O)C1CCC(C(O)CCC(O)C2CCC(CCCCCCC[C@H](O)CC3=C[C@@H](C)OC3=O)O2)O1 (some centres not stated) | > 100 µM | > 100 µM | TGI (BT-549 breast): 2.26 µM; TGI (NCI/ADR-RES ovarian): 8.23 µM
CN(C)CC/C(=N\Nc1ccccc1)c1ccccc1 | > 100 µM | – | –
O=C1NC2CCC(C2)C1c1ccccc1 (configuration not stated) | > 100 µM | > 100 µM | –
COC(=O)C(=O)C(C#N)c1ccc(CC#N)cc1 (configuration not stated) | – | > 100 µM | –

— PubChem BioAssay (NCI)
